In US5008187A, “Antifungal fermentation product” (Merck & Co., Inc., priority 1988, dated 1991):
Values after ≈ are worked out from the molar mass of the structure shown. “Also recorded” adds a separate entry of the source.

How the values were obtained:
[1] = tested on: A. flavus; test: agar dilution MIC; format: cell-based; conditions: strain MF383, yeast nitrogen base agar
Experimental: (§1) Minimum inhibiting concentration against representative fungal organisms may be seen in the results of tests carried out by the agar dilution method in which an aqueous suspension of the metabolite was solubilized by adding a small amount of methanol. Further dilutions were made employing water. The diluted samples were added to molten agar to produce final concentrations of 512 μg/ml and lower. The molten agar was yeast nitrogen base agar prepared by adding 1 part of sterile yeast nitrogen base agar to 9 parts 2% Difco agar.

[2] = tested on: Aspergillus fumigatus; test: agar dilution MIC; format: cell-based; conditions: strain MF4839, yeast nitrogen base agar
Experimental: as §1

[3] = tested on: Aspergillus niger; test: agar dilution MIC; format: cell-based
Experimental: as §1

[4] = tested on: C. rugosa; test: agar dilution MIC; format: cell-based; conditions: strain MY1022, yeast nitrogen base agar
Experimental: as §1

[5] = tested on: C. tropicalis; test: agar dilution MIC; format: cell-based; conditions: strain MY1012, yeast nitrogen base agar
Experimental: as §1

[6] = tested on: Candida pseudotropicalis; test: agar dilution MIC; format: cell-based; conditions: strain MY1100, yeast nitrogen base agar
Experimental: as §1

[7] = tested on: Cephalosporium sp.; test: agar dilution MIC; format: cell-based; conditions: strain MF4641, yeast nitrogen base agar
Experimental: as §1

[8] = tested on: Ceratocystis ulmi; test: agar dilution MIC; format: cell-based; conditions: strain MF4042, yeast nitrogen base agar
Experimental: as §1

[9] = tested on: Cercospora beticola; test: agar dilution MIC; format: cell-based; conditions: strain MF4608, yeast nitrogen base agar
Experimental: as §1

[10] = tested on: Cr. albidus; test: agar dilution MIC; format: cell-based; conditions: strain MY1070, yeast nitrogen base agar
Experimental: as §1

[11] = tested on: Cr. laurentii; test: agar dilution MIC; format: cell-based
Experimental: as §1

[12] = tested on: Cryptococcus neoformans; test: agar dilution MIC; format: cell-based
Experimental: as §1

[13] = tested on: Debaryomyces guilliermondi; test: agar dilution MIC; format: cell-based; conditions: strain MY321, yeast nitrogen base agar
Experimental: as §1

[14] = tested on: Fusarium oxysporium; test: agar dilution MIC; format: cell-based; conditions: strain MF4014, yeast nitrogen base agar
Experimental: as §1

[15] = tested on: Penicillium sp.; test: agar dilution MIC; format: cell-based
Experimental: as §1

[16] = tested on: Scopulariopsi communis; test: agar dilution MIC; format: cell-based; conditions: strain MF3769, yeast nitrogen base agar
Experimental: as §1

[17] = tested on: Trichoderma lignorum; test: agar dilution MIC; format: cell-based; conditions: strain MF3560, yeast nitrogen base agar
Experimental: as §1

[18] = tested on: Trichoderma sp.; test: agar dilution MIC; format: cell-based; conditions: strain MF4064, yeast nitrogen base agar
Experimental: as §1

[19] = tested on: Ustilago maydis; test: agar dilution MIC; format: cell-based; conditions: strain MF1996, yeast nitrogen base agar
Experimental: as §1

[20] = tested on: Verticillium serrae; test: agar dilution MIC; format: cell-based; conditions: strain MF3794, yeast nitrogen base agar
Experimental: as §1

[21] = tested on: filamentous fungi and yeast organisms; test: antifungal activity (summary statement); format: cell-based; conditions: in words
Experimental: as §1

[22] = tested on: bacteria; test: antibacterial activity (summary statement); format: cell-based; conditions: in words, no data shown
[23] = solubility in organic solvents; format: physicochemical; conditions: organic solvents such as methanol, ethanol, dimethylformamide, dimethyl sulfoxide, ethyl acetate

`CCCCCCC(C)CC(C)=CC(C=C(C)C=CC(O)C(C)(C)c1cc(O)c(C2OC(CO)CC(O)C2O)c(=O)o1)CO` (centres unmarked) [Compound I] gave an MIC [1] of 64 µg/mL (≈ 105 µM), an MIC [2] of 64 µg/mL (≈ 105 µM) and an MIC ([3]; strain MF11, yeast nitrogen base agar) of 1.6 µg/mL (≈ 2.64 µM). It also gave an MIC ([3]; strain MF442, yeast nitrogen base agar) of 3.1 µg/mL (≈ 5.11 µM), an MIC [4] of 25 µg/mL (≈ 41.2 µM) and an MIC [5] of 25 µg/mL (≈ 41.2 µM). The MIC [6] was 25 µg/mL (≈ 41.2 µM), the MIC [7] was 12.5 µg/mL (≈ 20.6 µM) and the MIC [8] was 25 µg/mL (≈ 41.2 µM). It also gave an MIC [9] of 4 µg/mL (≈ 6.59 µM), an MIC [10] of 8 µg/mL (≈ 13.2 µM) and an MIC ([11]; strain MY1073, yeast nitrogen base agar) of 6.2 µg/mL (≈ 10.2 µM). It also gave an MIC ([11]; strain MY1074, yeast nitrogen base agar) of 8 µg/mL (≈ 13.2 µM), an MIC ([11]; strain MY1077, yeast nitrogen base agar) of 12.5 µg/mL (≈ 20.6 µM) and an MIC ([12]; strain MY1046, yeast nitrogen base agar) of 8 µg/mL (≈ 13.2 µM). For the same compound, the MIC ([12]; strain MY1050, yeast nitrogen base agar) was 32 µg/mL (≈ 52.7 µM), the MIC ([12]; strain MY1051, yeast nitrogen base agar) was 128 µg/mL (≈ 211 µM) and the MIC [13] was 6.2 µg/mL (≈ 10.2 µM). The MIC [14] was 25 µg/mL (≈ 41.2 µM), the MIC ([15]; strain MF5014, yeast nitrogen base agar) was 3.1 µg/mL (≈ 5.11 µM) and the MIC ([15]; strain MF5020, yeast nitrogen base agar) was 1.6 µg/mL (≈ 2.64 µM). It also gave an MIC [16] of 6.2 µg/mL (≈ 10.2 µM), an MIC [17] of 6.2 µg/mL (≈ 10.2 µM) and an MIC [18] of 1.6 µg/mL (≈ 2.64 µM). For the same compound, the MIC [19] was 8 µg/mL (≈ 13.2 µM), the MIC [20] was 25 µg/mL (≈ 41.2 µM) and the antifungal activity [21] was “active against a moderately broad spectrum of filamentous fungi and yeast organisms; also recorded: excellent antifungal properties against many filamentous and many yeast organisms”. The antibacterial properties [22] was “antibacterial properties” and the solubility [23] was “soluble”.
